# Measurements as given in patent US7718673B2, “Isonipecotamides for the treatment of integrin-mediated disorders” (Ortho-McNeil Pharmaceutical, Inc., priority 1999, dated 2010).
# Like-named read-outs stand apart in the source and are kept apart here.
# Tests used:
# Human αvβ3 = target: T1, Human αvβ3 (Homo sapiens, UniProt P05106+P06756); assay: In vitro solid phase purified αvβ3 binding assay (vitronectin/αvβ3)
# T1 construct: purchased Chemicon International Inc., Temecula, Calif
# Description: In Vitro Solid Phase Purified αvβ3 Binding Assay
# (§1) The vitronectin/αvβ3 binding assay methods were derived from Mehta et al. (Biochem J. 1998, 330, 861). Human αvβ3 (Chemicon International Inc., Temecula, Calif.), at a concentration of 1 μg/ml dissolved in Tris buffer (20 mM Tris, 1 mM CaCl2, […], 10 μM MnCl2, 150 mM NaCl), was immobilized on Immulon 96 well plates (Dynex Technologies, Chantilly, Va.) overnight at 4° C. Plates were washed and treated with blocking buffer (3% BSA in Tris buffer) for 2 h at 37° C. Plates were then rinsed 2 times with Tris buffer containing 0.3% BSA and 0.2% Tween20 (polyoxyethylenesorbitan monolaurate). Five minutes prior to the addition of 5 nM vitronectin (Sigma, St. Louis, Mo.), synthesized compounds were added to wells in duplicate. Each plate included c-RGDfV as an internal control. Following a 3 hour incubation at 37° C., plates were washed 5 times in assay buffer. An anti-human vitronectin IgG rabbit polyclonal antibody (Calbiochem, San Diego, Calif.) was added (1:2000) and plates were incubated for 1 hour at room temperature. VectaStain ABC peroxidase kit reagents (Vector Laboratories, Burlingame, Calif.) employing a biotin labeled anti-rabbit IgG, were utilized for detection of bound antibody. Plates were read at 490 nm on a Molecular Devices (Sunnyvale, Calif.) microplate reader.
# human purified αvβ5 = target: T2, human purified αvβ5 (Homo sapiens, UniProt P06756+P18084); assay: In vitro solid phase purified αvβ5 binding assay (vitronectin/αvβ5); details: for IC50: vitronectin binding to immobilized αvβ5; for inhibition at 5 µM: read-out: αvβ5 Percent inhibition at 5 μM
# T2 construct: purchased Chemicon International, Inc
# T2 sequence (P06756 31-889 limits assumed): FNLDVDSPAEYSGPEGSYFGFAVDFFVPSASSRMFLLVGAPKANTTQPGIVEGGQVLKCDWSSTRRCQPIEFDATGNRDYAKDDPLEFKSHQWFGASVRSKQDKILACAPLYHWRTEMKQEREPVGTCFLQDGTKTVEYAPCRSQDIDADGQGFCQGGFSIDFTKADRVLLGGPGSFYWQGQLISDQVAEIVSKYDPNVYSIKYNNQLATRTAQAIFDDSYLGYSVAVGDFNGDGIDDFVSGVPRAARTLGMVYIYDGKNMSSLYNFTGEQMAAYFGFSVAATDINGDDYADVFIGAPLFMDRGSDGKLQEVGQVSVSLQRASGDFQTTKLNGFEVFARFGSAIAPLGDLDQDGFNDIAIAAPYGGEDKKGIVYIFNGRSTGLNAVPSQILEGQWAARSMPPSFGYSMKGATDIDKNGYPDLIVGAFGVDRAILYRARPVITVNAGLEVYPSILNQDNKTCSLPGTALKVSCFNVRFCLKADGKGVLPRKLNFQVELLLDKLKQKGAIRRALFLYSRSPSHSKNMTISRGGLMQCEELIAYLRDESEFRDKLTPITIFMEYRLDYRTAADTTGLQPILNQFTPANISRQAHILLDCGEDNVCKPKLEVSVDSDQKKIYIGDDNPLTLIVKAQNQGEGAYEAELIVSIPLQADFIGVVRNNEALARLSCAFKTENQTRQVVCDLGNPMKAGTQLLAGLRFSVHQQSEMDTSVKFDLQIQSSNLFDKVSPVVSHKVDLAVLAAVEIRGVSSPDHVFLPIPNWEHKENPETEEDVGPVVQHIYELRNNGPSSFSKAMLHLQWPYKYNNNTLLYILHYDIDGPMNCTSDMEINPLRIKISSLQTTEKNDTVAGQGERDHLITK
# T2 sequence (P06756 891-1048 partner limits assumed): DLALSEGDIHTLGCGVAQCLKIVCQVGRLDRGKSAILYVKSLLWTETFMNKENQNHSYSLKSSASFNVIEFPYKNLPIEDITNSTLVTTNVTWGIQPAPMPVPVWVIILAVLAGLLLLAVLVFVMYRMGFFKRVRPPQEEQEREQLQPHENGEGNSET
# T2 sequence (P18084 24-799): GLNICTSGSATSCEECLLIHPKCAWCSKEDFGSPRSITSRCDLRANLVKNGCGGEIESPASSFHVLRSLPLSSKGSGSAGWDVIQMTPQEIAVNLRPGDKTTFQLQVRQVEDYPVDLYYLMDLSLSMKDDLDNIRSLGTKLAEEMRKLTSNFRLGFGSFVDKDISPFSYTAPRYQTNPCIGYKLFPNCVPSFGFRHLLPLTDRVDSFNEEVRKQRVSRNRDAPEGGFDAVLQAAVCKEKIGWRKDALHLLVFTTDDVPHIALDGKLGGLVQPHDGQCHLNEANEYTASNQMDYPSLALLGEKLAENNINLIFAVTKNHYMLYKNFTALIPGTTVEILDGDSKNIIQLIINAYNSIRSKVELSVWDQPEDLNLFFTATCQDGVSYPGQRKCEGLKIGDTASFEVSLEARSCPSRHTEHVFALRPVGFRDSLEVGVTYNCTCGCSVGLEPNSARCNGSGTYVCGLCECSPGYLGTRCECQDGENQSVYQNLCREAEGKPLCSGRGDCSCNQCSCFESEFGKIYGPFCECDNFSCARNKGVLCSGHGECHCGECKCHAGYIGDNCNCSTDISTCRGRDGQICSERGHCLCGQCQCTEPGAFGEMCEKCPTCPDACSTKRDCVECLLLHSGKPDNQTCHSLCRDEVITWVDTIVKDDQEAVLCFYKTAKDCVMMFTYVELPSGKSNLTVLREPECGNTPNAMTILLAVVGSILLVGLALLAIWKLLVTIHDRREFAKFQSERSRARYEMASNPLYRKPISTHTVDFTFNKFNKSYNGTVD
# Description: as §1
# In Vitro Solid Phase Purified αvβ5 Binding Assay
# The vitronectin/αvβ5 binding assay method was performed in the same manner as the vitronectin/αvβ3 binding assay (EXAMPLE 64) immobilizing with 1 μg/ml of human purified αvβ5 (Chemicon International, Inc.) on to Immulon 96 well plates (Dynex Technologies) instead of αvβ3. All other aspects of the assay including buffers, reagents, and incubation times remain unchanged.
# [1] = target: RGD-affinity purified GPIIb/IIIa (Homo sapiens, UniProt P05106+P08514); assay: In vitro solid phase purified GPIIb/IIIa binding assay (biotinylated fibrinogen); details: fibrinogen binding to immobilized GPIIb/IIIa; read-out: IIb/IIIa IC50
# Sequence of RGD-affinity purified GPIIb/IIIa (P08514 32-887 limits assumed): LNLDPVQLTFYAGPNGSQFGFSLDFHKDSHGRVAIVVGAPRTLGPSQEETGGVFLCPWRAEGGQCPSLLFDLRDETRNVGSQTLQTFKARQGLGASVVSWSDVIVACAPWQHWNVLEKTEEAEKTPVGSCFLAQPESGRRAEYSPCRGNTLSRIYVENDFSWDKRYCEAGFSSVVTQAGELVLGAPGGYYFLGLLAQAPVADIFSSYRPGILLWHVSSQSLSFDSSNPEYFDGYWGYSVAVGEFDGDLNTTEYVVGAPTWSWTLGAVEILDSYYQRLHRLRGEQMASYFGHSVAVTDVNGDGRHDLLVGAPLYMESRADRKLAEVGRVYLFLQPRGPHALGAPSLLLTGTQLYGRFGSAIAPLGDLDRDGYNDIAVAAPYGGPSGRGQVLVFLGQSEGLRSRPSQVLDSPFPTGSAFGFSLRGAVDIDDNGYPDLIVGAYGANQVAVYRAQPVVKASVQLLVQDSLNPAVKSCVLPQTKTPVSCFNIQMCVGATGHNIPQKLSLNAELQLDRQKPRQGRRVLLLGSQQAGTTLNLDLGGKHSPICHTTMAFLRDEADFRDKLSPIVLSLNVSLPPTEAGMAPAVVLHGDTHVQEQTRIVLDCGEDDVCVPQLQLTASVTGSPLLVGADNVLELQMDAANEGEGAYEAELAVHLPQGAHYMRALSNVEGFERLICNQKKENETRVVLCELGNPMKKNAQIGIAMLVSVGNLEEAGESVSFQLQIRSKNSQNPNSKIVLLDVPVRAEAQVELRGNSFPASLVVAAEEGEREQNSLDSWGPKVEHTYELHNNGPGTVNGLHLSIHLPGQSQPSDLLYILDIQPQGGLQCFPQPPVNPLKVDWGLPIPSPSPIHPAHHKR
# Sequence of RGD-affinity purified GPIIb/IIIa (P08514 891-1039 partner limits assumed): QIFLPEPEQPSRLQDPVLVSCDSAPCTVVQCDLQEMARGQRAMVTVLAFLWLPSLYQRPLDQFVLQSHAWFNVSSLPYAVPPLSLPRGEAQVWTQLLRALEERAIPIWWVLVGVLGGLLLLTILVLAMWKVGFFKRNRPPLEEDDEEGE
# Sequence of RGD-affinity purified GPIIb/IIIa (P05106 27-788): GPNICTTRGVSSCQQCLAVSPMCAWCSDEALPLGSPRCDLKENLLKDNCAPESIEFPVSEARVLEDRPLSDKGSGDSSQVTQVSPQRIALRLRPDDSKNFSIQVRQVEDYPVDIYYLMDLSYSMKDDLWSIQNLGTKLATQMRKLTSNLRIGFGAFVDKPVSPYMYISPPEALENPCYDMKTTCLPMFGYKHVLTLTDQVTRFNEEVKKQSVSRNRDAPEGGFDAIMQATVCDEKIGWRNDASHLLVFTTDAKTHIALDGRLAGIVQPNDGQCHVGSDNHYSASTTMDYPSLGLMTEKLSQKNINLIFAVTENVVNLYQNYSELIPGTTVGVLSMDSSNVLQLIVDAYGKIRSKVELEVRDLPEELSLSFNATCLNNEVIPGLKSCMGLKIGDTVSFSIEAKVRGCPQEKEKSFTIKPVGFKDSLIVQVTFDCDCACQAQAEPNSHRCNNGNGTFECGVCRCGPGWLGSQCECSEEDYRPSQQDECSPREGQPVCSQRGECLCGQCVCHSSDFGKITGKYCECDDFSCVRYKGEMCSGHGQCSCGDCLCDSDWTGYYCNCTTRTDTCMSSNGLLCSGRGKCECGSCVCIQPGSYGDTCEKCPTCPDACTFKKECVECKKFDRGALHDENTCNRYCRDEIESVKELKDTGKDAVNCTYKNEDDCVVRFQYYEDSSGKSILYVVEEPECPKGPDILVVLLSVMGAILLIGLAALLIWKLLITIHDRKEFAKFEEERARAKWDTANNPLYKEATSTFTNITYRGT
# Description: In Vitro Solid Phase Purified GP IIB/IIIA Binding Assay
# The plate was covered and incubated overnight at 4° C. The GPIIb/IIIa solution was discarded and 150 μl of 5% BSA was added and incubated at RT for 1-3 h. The plate was washed extensively with modified Tyrodes buffer. Biotinylated fibrinogen (25 μl/well) at 2× final concentration was added to the wells that contain the test compounds (25 μl/well). The plate was covered and incubated at RT for 2-4 h. Twenty minutes prior to incubation completion, one drop of Reagent A (VectaStain ABC Horse Radish Peroxidase kit, Vector Laboratories, Inc.) and one drop Reagent B were added with mixing to 5 mL modified Tyrodes buffer mix and let stand. The ligand solution was discarded and the plate washed (5×200 μl/well) with modified Tyrodes buffer. Vecta Stain HRP-Biotin-Avidin reagent (50 μl/well, as prepared above) was added and incubated at RT for 15 min. The Vecta Stain solution was discarded and the wells washed (5×200 μl/well) with modified Tyrodes buffer. Developing buffer (10 mL of 50 mM citrate/phosphate buffer @ pH 5.3, 6 mg o-phenylenediamine, 6 μl 30% H2O2; 50 μl/well) was added and incubated at RT for 3-5 min, and then 2 NH2SO4 (50 μl/well) was added. The absorbance was read at 490 nm.
# [2] = vitronectin binding to immobilized αvβ3, read-out: αvβ3 IC50
# T1 sequence (P06756 31-889 limits assumed): as the sequence (P06756 31-889 limits assumed) above
# T1 sequence (P06756 891-1048 partner limits assumed): as the sequence (P06756 891-1048 partner limits assumed) above
# T1 sequence (P05106 27-788): as the sequence (P05106 27-788) above
Structure (SMILES),IC50 (Human αvβ3),IC50 (human purified αvβ5),IC50 [1],IC50 (Human αvβ3; [2]),melting point,inhibition at 5 µM (human purified αvβ5)
"O=C(O)C[C@H](NC(=O)C1CCN(C(=O)CCCNC2=NCCN2)CC1)c1cnc2ccccc2c1 [Compound 1, β-[[[1-[4-[(4,5-dihydro-1H-imidazol-2-yl)amino]-1-oxobutyl]-4-piperidinyl]carbonyl]amino]-, (β^3S)-3-quinolinepropanoic acid]",3.7 nM,25 nM,30 nM,–,–,–
"O=C(N[C@@H](CNC(=O)C1CCN(C(=O)CCCNC2=NCCN2)CC1)C(=O)O)OCc1ccccc1 [Compound 2, 3-[[[1-[4-[(4,5-dihydro-1H-imidazol-2-yl)amino]-1-oxobutyl]-4-piperidinyl]carbonyl]amino]-N-[(phenylmethoxy)carbonyl]-L-alanine]",–,21 nM,8.9 nM,5.8 nM,–,–
"O=C(O)C[C@H](NC(=O)C1CCN(C(=O)CCCNc2ccccn2)CC1)c1cnc2ccccc2c1 [Compound 6, β-[[[1-[1-oxo-4-(2-pyridinylamino)butyl]-4-piperidinyl]carbonyl]amino]-, (β^3S)-3-quinolinepropanoic acid]",–,–,460 nM,4 nM,87 to 90 °C,–
"CC(CNC1=NCCN1)C(=O)N1CCC(C(=O)NC[C@H](NC(=O)OCc2ccccc2)C(=O)O)CC1 (stereo partly drawn) [Compound 16, 3-[[[1-[3-[(4,5-dihydro-1H-imidazol-2-yl)amino]-2-methyl-1-oxopropyl]-4-piperidinyl]carbonyl]amino]-N-[(phenylmethoxy)carbonyl]-L-alanine]",–,38 nM,18 nM,19 nM,–,–
COc1ccc(C(CC(=O)O)NC(=O)C2CCN(C(=O)CCCNC3=NCCN3)CC2)cc1OC (centres unmarked) [Compound 34],–,> 5000 nM,1500 nM,29 nM,–,–
Cc1cccnc1NCCCC(=O)N1CCC(C(=O)NC[C@H](NC(=O)OCc2ccccc2)C(=O)O)CC1 [Compound 41],–,–,110 nM,> 300 nM,–,–
COC(=O)[C@H](CNC(=O)C1CCN(C(=O)CCCNC2=NCCN2)CC1)NC(=O)OCc1ccccc1 [Compound 42],–,–,140 nM,170 nM,–,–
O=C(O)CC(NC(=O)C1CCN(C(=O)CCCNC2=NCCN2)CC1)c1ccc(F)c(F)c1 (centres unmarked) [Compound 43],–,–,1300 nM,230 nM,–,–
COC(=O)C[C@H](NC(=O)C1CCN(C(=O)CCCNC2=NCCN2)CC1)c1cnc2ccccc2c1 [Compound 44],–,2900 nM,360 nM,28 nM,–,–
CCN(CC)C(=O)COC(=O)CC(NC(=O)C1CCN(C(=O)CCCNC2=NCCN2C(=O)OC(C)(C)C)CC1)c1cnc2ccccc2c1 (centres unmarked) [Compound 45],–,–,14000 nM,3700 nM,–,40%
CCN(CC)C(=O)COC(=O)CC(NC(=O)C1CCN(C(=O)CCCNC2=NCCN2)CC1)c1cnc2ccccc2c1 (centres unmarked) [Compound 46],–,> 5000 nM,1600 nM,150 nM,–,–
"CC(CCNC1=NCCN1)C(=O)N1CCC(C(=O)NC[C@H](NC(=O)OCc2ccccc2)C(=O)O)CC1 (stereo partly drawn) [Compound 47, 3-[[[1-[4-[(4,5-dihydro-1H-imidazol-2-yl)amino]-2-methyl-1-oxobutyl]-4-piperidinyl]carbonyl]amino]-N-[(phenylmethoxy)carbonyl]-L-alanine]",–,–,28 nM,4 nM,–,–
CC(CCNC1=NCCN1)C(=O)N1CCC(C(=O)N[C@@H](CC(=O)O)Cc2ccccc2)CC1 (some centres unmarked) [Compound 48],–,–,1100 nM,510 nM,–,–
C=CC(CCC(=O)N1CCC(C(=O)NC[C@H](NC(=O)OCc2ccccc2)C(=O)O)CC1)NC1=NCCN1 (some centres unmarked) [Compound 49],–,210 nM,12 nM,39 nM,–,–
"C=CC(N)CCC(=O)N1CCC(C(=O)NC[C@H](NC(=O)OCc2ccccc2)C(=O)O)CC1 (stereo partly drawn) [Compound 50, 3-[[[1-(4-amino-1-oxo-5-hexenyl)-4-piperidinyl]carbonyl]amino]-N-[(phenylmethoxy)carbonyl]-L-alanine]",–,–,7.4 nM,3900 nM,–,38%
COC(=O)[C@H](CNC(=O)C1CCN(C(=O)C(C)CNC2=NCCN2)CC1)NC(=O)OCc1ccccc1 (some centres unmarked) [Compound 51],–,2000 nM,290 nM,270 nM,–,–
CC(CNC1=NCCN1)C(=O)N1CCC(C(=O)N[C@@H](CC(=O)O)c2cccnc2)CC1 (some centres unmarked) [Compound 52],–,760 nM,2700 nM,250 nM,–,–
"O=C(N[C@@H](CNC(=O)C1CCN(C(=O)c2ccc(CNC3=NCCN3)cc2)CC1)C(=O)O)OCc1ccccc1 [Compound 53, 3-[[[1-[4-[[(4,5-dihydro-1H-imidazol-2-yl)amino]methyl]benzoyl]-4-piperidinyl]carbonyl]amino]-N-[(phenylmethoxy)carbonyl]-L-alanine]",–,–,1.5 nM,570 nM,–,–
CC(CNC1=NCCN1)CC(=O)N1CCC(C(=O)NC[C@H](NC(=O)OCc2ccccc2)C(=O)O)CC1 (some centres unmarked) [Compound 54],–,–,13 nM,72 nM,–,–
O=C(N[C@@H](CNC(=O)C1CCN(C(=O)/C=C/CNC2=NCCN2)CC1)C(=O)O)OCc1ccccc1 [Compound 55],–,–,26 nM,12 nM,–,–
NCCCC(=O)N1CCC(C(=O)NC[C@H](NC(=O)OCc2ccccc2)C(=O)O)CC1 [Compound 56],–,–,49 nM,> 5000 nM,–,–
O=C(N[C@H](CNC(=O)C1CCN(C(=O)CCCNC2=NCCS2)CC1)C(=O)O)OCc1ccccc1 [Compound 57],–,–,130 nM,350 nM,–,–
N=C(N)NOCCC(=O)N1CCC(C(=O)NC[C@H](NC(=O)OCc2ccccc2)C(=O)O)CC1 [Compound 58],–,71 nM,260 nM,40 nM,–,–
O=C(NCCCC(=O)N1CCC(C(=O)NC[C@H](NC(=O)OCc2ccccc2)C(=O)O)CC1)NCc1ccccc1 [Compound 59],–,–,510 nM,160 nM,–,–
O=C(N[C@@H](CNC(=O)C1CCN(C(=O)CCONC2=NCCN2)CC1)C(=O)O)OCc1ccccc1 [Compound 60],–,86 nM,190 nM,27 nM,–,–
"O=C(O)CC(NC(=O)C1CCN(C(=O)CCONC2=NCCN2)CC1)c1ccc2c(c1)OCO2 (stereo not drawn) [Compound 61, β-[[[1-[3-[[(4,5-dihydro-1H-imidazol-2-yl)amino]oxy]-1-oxopropyl]-4-piperidinyl]carbonyl]amino]-1,3-benzodioxole-5-propanoic acid]",–,–,2700 nM,180 nM,–,–
"O=C(O)CC(NC(=O)C1CCN(C(=O)CCCNc2ccccn2)CC1)c1ccc2c(c1)OCO2 (stereo not drawn) [Compound 62, β-[[[1-[1-oxo-4-(2-pyridinylamino)butyl]-4-piperidinyl]carbonyl]amino]-1,3-benzodioxole-5-propanoic acid]",–,–,380 nM,> 500 nM,–,–
